# Results from ChEMBL document CHEMBL3988442, “University of Dundee, Small-Polar-MMV Screening Library” (2021).
# Where “and” joins values, the source holds several entries; their conditions need not be identical. Equal entries are not always repeated.
# Tests used:
# [1] = molecular target: T1, Arginase-2, mitochondrial (Homo sapiens, UniProt P78540); assay: in vitro enzyme assay to detect the production of urea directly proportional to the activity of Arginase II; type: functional
# T1 sequence (P78540 whole entry): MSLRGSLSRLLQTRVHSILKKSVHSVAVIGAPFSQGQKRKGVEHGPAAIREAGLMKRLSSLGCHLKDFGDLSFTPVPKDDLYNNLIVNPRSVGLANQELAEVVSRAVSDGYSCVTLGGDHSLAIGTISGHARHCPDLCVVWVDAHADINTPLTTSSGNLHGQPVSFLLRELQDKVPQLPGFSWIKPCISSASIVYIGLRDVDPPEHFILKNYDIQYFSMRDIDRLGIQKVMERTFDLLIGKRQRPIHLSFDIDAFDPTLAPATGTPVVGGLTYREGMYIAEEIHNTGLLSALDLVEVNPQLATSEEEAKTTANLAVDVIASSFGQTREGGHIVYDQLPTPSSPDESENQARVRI
# Plasmodium falciparum = assay: Plasmodium falciparum sporozoite viability assay; type: functional, organism-based; conditions: for IC50: Plasmodium falciparum
# [2] = Trypanosoma cruzi proteasome luciferase counter-screen; type: functional, N/A
# Proteasome subunit beta = molecular target: T2, Proteasome subunit beta (Trypanosoma cruzi, UniProt O96673); assay: Trypanosoma cruzi proteasome chymotrypsin-like activity (TcProtChymo) assay.; type: functional
# T2 sequence (O96673 whole entry): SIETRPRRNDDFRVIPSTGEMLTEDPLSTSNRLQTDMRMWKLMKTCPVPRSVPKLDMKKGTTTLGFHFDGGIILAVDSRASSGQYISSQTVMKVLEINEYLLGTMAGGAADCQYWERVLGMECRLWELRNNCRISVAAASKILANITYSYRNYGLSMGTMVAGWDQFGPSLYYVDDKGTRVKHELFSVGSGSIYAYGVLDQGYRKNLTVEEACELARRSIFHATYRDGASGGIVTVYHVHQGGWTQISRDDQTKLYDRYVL
# [3] = molecular target: T3, Ubiquitin-activating enzyme e1, putative (Leishmania donovani (strain BPK282A1), UniProt E9BSI1); assay: Leishmania donovani Ubiquitin Activating Enzyme (LdE1); type: functional
# T3 sequence (E9BSI1 whole entry): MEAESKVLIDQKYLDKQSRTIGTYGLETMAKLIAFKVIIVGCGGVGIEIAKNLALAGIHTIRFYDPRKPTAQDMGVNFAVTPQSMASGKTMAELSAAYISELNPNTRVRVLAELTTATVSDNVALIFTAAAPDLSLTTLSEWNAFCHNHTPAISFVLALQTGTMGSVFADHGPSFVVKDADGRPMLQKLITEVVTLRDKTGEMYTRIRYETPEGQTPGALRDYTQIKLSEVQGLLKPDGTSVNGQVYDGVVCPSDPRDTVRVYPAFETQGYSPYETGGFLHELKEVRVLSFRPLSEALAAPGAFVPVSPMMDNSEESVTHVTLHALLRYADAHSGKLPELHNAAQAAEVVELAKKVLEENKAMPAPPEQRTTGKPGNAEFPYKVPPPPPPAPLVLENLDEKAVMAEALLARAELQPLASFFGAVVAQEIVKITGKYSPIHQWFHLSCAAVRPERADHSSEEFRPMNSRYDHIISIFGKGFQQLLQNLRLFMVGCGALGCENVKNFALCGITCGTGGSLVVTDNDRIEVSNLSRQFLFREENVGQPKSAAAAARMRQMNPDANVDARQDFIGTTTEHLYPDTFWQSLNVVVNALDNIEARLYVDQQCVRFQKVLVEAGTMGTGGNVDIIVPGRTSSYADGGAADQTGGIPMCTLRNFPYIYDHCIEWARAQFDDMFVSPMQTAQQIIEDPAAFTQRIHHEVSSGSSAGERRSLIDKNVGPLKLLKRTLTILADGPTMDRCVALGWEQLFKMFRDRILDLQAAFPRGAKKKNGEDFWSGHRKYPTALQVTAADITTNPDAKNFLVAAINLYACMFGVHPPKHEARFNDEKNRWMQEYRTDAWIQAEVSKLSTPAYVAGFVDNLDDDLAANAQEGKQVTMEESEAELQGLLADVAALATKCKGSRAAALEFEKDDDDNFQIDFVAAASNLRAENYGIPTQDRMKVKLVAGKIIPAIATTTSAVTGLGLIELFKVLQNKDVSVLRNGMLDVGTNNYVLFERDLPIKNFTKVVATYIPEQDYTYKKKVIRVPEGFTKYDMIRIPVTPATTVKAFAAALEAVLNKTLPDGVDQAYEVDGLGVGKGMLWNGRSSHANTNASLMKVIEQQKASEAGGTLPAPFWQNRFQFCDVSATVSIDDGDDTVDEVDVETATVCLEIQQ
# Schistosoma mansoni = assay: High throughput screening of compounds against Schistosoma mansoni motility; type: functional; design: dose or concentration left out as unconfirmed
# [4] = molecular target: T4, Coenzyme A biosynthesis bifunctional protein CoaBC (Mycobacterium tuberculosis (strain ATCC 25618 / H37Rv), UniProt P9WNZ1); assay: Biomol Green assay for MtCoaBC inhibitor, OD650 read; type: functional
# T4 sequence (P9WNZ1 whole entry): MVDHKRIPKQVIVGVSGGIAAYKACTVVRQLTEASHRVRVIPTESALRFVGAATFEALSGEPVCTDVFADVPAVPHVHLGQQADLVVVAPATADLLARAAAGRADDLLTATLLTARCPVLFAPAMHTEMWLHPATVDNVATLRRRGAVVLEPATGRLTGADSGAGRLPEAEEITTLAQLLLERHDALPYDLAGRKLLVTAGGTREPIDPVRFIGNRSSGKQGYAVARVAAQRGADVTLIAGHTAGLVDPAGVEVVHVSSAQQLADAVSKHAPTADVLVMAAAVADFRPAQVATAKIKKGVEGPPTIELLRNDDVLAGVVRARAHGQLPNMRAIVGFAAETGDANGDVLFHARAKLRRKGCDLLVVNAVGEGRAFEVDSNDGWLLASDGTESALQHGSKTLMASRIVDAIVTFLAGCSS
# [5] = molecular target: Polyketide synthase Pks13 (Mycobacterium tuberculosis (strain ATCC 25618 / H37Rv), UniProt I6X8D2); assay: Mycobacterium tuberculosis Polyketide synthase 13 Thioesterase (PKS13); type: functional
# Polyketide synthase Pks13, sequence (I6X8D2 whole entry): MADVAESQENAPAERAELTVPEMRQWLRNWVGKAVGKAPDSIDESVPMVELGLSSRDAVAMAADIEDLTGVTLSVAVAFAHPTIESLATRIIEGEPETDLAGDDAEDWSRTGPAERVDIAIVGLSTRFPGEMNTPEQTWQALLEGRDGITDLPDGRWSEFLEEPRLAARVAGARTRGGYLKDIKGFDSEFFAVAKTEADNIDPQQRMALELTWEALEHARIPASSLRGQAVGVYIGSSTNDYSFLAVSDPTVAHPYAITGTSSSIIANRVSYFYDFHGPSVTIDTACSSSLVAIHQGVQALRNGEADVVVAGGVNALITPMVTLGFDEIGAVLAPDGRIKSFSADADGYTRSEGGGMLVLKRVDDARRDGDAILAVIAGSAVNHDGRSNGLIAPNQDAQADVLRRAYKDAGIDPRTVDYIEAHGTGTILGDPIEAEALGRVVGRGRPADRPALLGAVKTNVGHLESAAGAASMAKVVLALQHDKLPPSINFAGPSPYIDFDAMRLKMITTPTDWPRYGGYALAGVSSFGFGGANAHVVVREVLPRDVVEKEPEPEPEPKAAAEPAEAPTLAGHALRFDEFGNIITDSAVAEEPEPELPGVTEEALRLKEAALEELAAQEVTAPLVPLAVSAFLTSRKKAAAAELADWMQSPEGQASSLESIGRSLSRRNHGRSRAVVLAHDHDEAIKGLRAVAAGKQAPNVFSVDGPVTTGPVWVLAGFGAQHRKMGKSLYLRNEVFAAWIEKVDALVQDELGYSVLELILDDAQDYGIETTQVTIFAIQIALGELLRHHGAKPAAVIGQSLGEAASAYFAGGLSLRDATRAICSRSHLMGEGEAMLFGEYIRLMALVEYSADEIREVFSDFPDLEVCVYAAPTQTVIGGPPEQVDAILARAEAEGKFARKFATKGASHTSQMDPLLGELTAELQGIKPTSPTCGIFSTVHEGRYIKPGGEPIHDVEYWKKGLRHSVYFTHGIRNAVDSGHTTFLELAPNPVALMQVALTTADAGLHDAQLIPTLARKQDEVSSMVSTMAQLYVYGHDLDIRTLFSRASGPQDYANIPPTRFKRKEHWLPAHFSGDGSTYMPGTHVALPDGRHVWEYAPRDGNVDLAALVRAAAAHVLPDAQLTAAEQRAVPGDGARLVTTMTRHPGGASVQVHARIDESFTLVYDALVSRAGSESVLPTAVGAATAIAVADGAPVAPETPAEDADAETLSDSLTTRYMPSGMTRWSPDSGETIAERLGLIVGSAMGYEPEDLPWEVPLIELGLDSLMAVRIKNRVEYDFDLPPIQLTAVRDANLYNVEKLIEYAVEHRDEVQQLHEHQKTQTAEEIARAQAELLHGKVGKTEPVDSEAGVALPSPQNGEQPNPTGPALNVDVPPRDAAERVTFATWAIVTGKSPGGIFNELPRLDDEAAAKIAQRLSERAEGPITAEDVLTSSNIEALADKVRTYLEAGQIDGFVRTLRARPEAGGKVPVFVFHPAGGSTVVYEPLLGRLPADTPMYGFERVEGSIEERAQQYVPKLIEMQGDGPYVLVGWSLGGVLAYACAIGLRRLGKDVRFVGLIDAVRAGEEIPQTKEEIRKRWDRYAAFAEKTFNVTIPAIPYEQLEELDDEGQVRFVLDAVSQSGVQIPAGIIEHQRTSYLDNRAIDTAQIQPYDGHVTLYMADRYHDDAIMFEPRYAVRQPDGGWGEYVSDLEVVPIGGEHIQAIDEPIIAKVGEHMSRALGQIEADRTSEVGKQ
compound,measurement,setting,value
Cc1nc(CCNC(=O)N2CCC(Cc3cnn(C)c3)C2)cs1 (configuration not stated),IC50,[1],> 100 µM
Cc1cnc(CN(Cc2ccccc2)CC(O)c2cccs2)cn1 (configuration not stated),IC50,[1],> 100 µM
Cc1ccc([C@@H]2CN(S(=O)(=O)N(C)C)C[C@H]2N(C)C)cc1,IC50,[1],> 100 µM
CNC(=O)[C@H]1C[C@@H]2CN(C(=O)c3ccco3)C[C@@H]2N1S(C)(=O)=O,IC50,[1],> 100 µM
Cc1[nH]ccc1C(=O)N1CCCC(c2nccn2Cc2cscn2)C1 (configuration not stated),IC50,[1],> 100 µM
CC(O)CNCc1ccc(OCc2ccc3c(c2)OCCO3)cc1.Cl (configuration not stated),pIC50,Plasmodium falciparum,6.937
same,IC50,Plasmodium falciparum,0.0903 µM
same,pIC50,[2],4.507 and 4.501
same,IC50,Proteasome subunit beta,9.3 µM and 9.77 µM
Cc1cc(CNC(=O)N2CCN(c3nc(C)c(C)s3)CC2)no1,IC50,[1],> 100 µM
O=C(NCc1ccncc1)N(Cc1ccccc1F)C1CC1,IC50,[1],> 100 µM
C[S+]([O-])CCCNC(=O)c1cc(Br)c2c(c1)OCCO2 (configuration not stated),IC50,[1],> 100 µM
Cc1nc(C)c(C(=O)OCCNc2ncccc2C#N)s1,pIC50,[2],4.56 and 4.563
same,IC50,Proteasome subunit beta,7.22 µM and 8.26 µM
same,IC50,[3],> 100 µM
COc1ccccc1CN1CCC2(CC1)CC(Oc1ccccn1)CO2 (configuration not stated),IC50,[1],> 100 µM
Cc1nn(CCO)c(C)c1CNC1CCc2c(Cl)cccc21 (configuration not stated),IC50,[1],> 100 µM
COCc1noc(-c2ccc(N3CCCCC3CO)nc2)n1 (configuration not stated),pIC50,Plasmodium falciparum,7.545
same,IC50,Plasmodium falciparum,0.0293 µM
same,pIC50,[2],4.522 and 4.491
same,IC50,Proteasome subunit beta,8.74 µM and 8.62 µM
O=C(Cn1ccc2c(Cl)cccc21)N1CCC2(CC1)OCCO2,IC50,[1],> 100 µM
O=C1CSC(c2ccsc2)c2c(n(C3CCOCC3)[nH]c2=O)N1 (configuration not stated),IC50,[1],> 100 µM
CN(C)c1ncc(CN2CCOC(C(=O)Nc3ccccc3)C2)cn1 (configuration not stated),IC50,[1],> 100 µM
COc1ccccc1Oc1ncccc1CNC(=O)C(C)N1CCCC1 (configuration not stated),IC50,[1],> 100 µM
same,Percent Effect,Schistosoma mansoni,13.35%
O=C(CO)N1CCC(c2cncc(-c3cccc(Cl)c3)n2)CC1,IC50,[4],> 30.2 µM
same,IC50,[1],> 100 µM
Cc1cc(S(=O)(=O)Nc2cccc(-n3cccc3)c2)sc1C(=O)O,pIC50,[2],< 4
same,IC50,[5],2.38 µM and 0.803 µM
same,IC50,Proteasome subunit beta,16.4 µM and 18.9 µM
same,IC50,[4],> 30.2 µM
